Source: patent publication US10906946B2, “Thrombin inhibitors” (priority 2015, dated 2021)
“And” between values parts separate entries of the source, which are not always exact repeats. Equal values may be shown once. Peptide text beside a SMILES is read from it.

Experiments:
thrombin = target: T1, thrombin (Homo sapiens, UniProt P00734); assay: Cleavage of peptide by thrombin (RP-HPLC, ESI-MS); type: biochemical; details: peptide incubated with thrombin (30:1)
T1 construct: residues in the termini of the light chain; and in the autolysis loop and C-terminus of the heavy chain; purchased Chemo-Sero-Therapeutic Research Institute (Kaketsuken, Japan), as a gift, not bought
Method: A. Evaluation of avathrin cleavage by thrombin by HPLC chromatograms. Avathrin (150 μM) was incubated with thrombin (5 μM) for various times and the reaction mixtures were separated using RP-HPLC; the masses of the cleavage products were analyzed with ESI-MS. At 0 min (upper panel), a single peak corresponding to full length avathrin (mass 3139 Da) was identified. At 120 min (middle panel), two new peaks corresponding to N-terminal cleavage product (^1[…]^10 of SEQ ID NO: 1; mass 982 Da) and C-terminal cleavage product ([…] (SEQ ID NO: 4); mass 2176 Da) were identified in addition to avathrin peak. At 600 min (lower panel), two peaks corresponding to the N- and C-terminal cleaved products were observed while avathrin peak was not observed, indicating complete cleavage. B. Time-dependent cleavage of avathrin by thrombin. Relative percentages of avathrin, its N- and C-terminal cleavage products were quantified by calculating areas under the curve. Each data point is the mean±S.D. of at least three independent experiments. C. Effect of thrombin cleavage on inhibitory properties of avathrin. Avathrin was incubated with thrombin (0.81 nM) for up to 36 h, and assayed at different time points for its ability to inhibit thrombin amidolytic activity on the chromogenic substrate S2238. […]
Thrombin amidolytic activity assays for all peptides were performed in 96-wells microtiter plates in 50 mM Tris buffer (pH 7.4) containing 100 mM NaCl and 1 mg/ml bovine serum albumin. […] The rates of formation of p-nitroaniline were followed by measuring the absorbance at 405 nm for 10 min with a Tecan InfinitePro M200 microplate reader from Tecan (Männedorf, Switzerland). […] To measure the inhibitory constants, different concentrations of S2238 were used and the residual velocities were determined using the Morrison's tight binding equation. Inhibition of thrombin fibrinogenolytic activity of peptides were tested by measuring absorbance at 650 nm using a Sunrise microplate reader from Tecan (Männedorf, Switzerland) as described previously [Koh C Y, et al., J Biol Chem 282: 29101-13 (2007)]. […] Effects of avathrin on the amidolytic activities of these serine proteases were determined using respective chromogenic substrates. […] After different incubation times, reactions were quenched with 1% TFA (pH 1.8) and loaded onto a Jupiter Proteo column (4 μm, 90 Å, 100×1.0 mm) attached to a Dionex nano-HPLC system from Thermo Fisher Scientific (Waltham, Mass., USA) and eluted using an acetonitrile gradient with 0.05% TFA and 99.95% MilliQ water as eluent A and 0.05% TFA, 19.95% MilliQ water and 80% ACN as eluent B. Masses of all peaks were measured to identify cleavage products, which were subsequently quantified by integrating the peaks and calculating the area under the curves. […]

human α-thrombin = target: T2, human α-thrombin (Homo sapiens, UniProt P00734); assay: Thrombin amidolytic activity assay with chromogenic substrate S2238; type: biochemical
T2 construct: residues in the termini of the light chain; purchased Chemo-Sero-Therapeutic Research Institute (Kaketsuken, Japan), as a gift, not bought
Method: Thrombin amidolytic activity assays for all peptides were performed in 96-wells microtiter plates in 50 mM Tris buffer (pH 7.4) containing 100 mM NaCl and 1 mg/ml bovine serum albumin. […] The rates of formation of p-nitroaniline were followed by measuring the absorbance at 405 nm for 10 min with a Tecan InfinitePro M200 microplate reader from Tecan (Männedorf, Switzerland). Dose-response curves were fitted using the GraphPad Prizm software (San Diego, Calif., USA) to calculate IC50 values and Hill coefficients. To measure the inhibitory constants, different concentrations of S2238 were used and the residual velocities were determined using the Morrison's tight binding equation. Inhibition of thrombin fibrinogenolytic activity of peptides were tested by measuring absorbance at 650 nm using a Sunrise microplate reader from Tecan (Männedorf, Switzerland) as described previously [Koh C Y, et al., J Biol Chem 282: 29101-13 (2007)]. The selectivity of avathrin was examined against 13 serine proteases (FIG. 5). Effects of avathrin on the amidolytic activities of these serine proteases were determined using respective chromogenic substrates. […] Avathrin (150 μM) was incubated with thrombin (5 μM), in 50 mM Tris buffer (pH 7.4) containing 150 mM NaCl and 1 mg/ml BSA. After different incubation times, reactions were quenched with 1% TFA (pH 1.8) and loaded onto a Jupiter Proteo column (4 μm, 90 Å, 100×1.0 mm) attached to a Dionex nano-HPLC system from Thermo Fisher Scientific (Waltham, Mass., USA) and eluted using an acetonitrile gradient with 0.05% TFA and 99.95% MilliQ water as eluent A and 0.05% TFA, 19.95% MilliQ water and 80% ACN as eluent B. Masses of all peaks were measured to identify cleavage products, which were subsequently quantified by integrating the peaks and calculating the area under the curves. To measure the effect of different pre-incubation times on the thrombin inhibitory activity, amidolytic assays were performed for various incubation times (up to 36 h).

[1] = test system: platelets (ADP-induced platelet aggregation); assay: Preservation of platelet function in blood tubes (Multiplate, ADP-induced platelet aggregation); type: cell-based, human (healthy volunteers); details: ADP agonist
Method: (§1) Individual peptides are dissolved in phosphate buffered saline to prepare 10× peptide solutions (ie. concentrations of peptides are 10 times higher than the final concentrations at which they are to be tested). 0.3 ml of the 10× peptide solutions are placed in blood tubes without any additives. Blood was drawn from healthy volunteers using syringes and immediately transferred to a 50 ml conical centrifuge tube (Falcon tube) before pipetting 2.7 ml of the blood into blood tubes with peptide solutions. Final concentrations of peptides are as stated in Table 5 and 6.
Blood tubes with various peptides at different concentrations were left standing at room temperature until tested at designated times. At different time points, tubes were inverted several times and blood samples were taken out for platelet aggregation tests using a Multiplate® Platelet aggregometer with adenosine diphosphate (ADP) as agonist according to manufacturer's recommended protocols.

blood = assay: Anti-coagulation effect of peptides in blood tubes (visual clot formation); parameters: species or system human (healthy volunteers); details: room temperature
Method: as §1
Blood tubes with various peptides at different concentrations were left standing at room temperature until tested at designated times. At different time points, tubes were inverted several times and visually inspected for insoluble materials as indications of clot formation.

[2] = test system: FeCl3-induced carotid artery thrombosis; assay: Ferric chloride-induced carotid artery thrombosis model; type: in vivo, C57BL/6 male mice; details: mice, 10% FeCl3
Method: All animal experiments were carried out under protocol 041/12 approved by Institutional Animal Care and Use Committee, National University of Singapore. The ferric chloride induced carotid artery thrombosis model was performed as described previously [Eckly A, et al., J Thromb Haemost 9: 779-89 (2011)] with minor modifications. Typically, C57BL/6 male mice (9-11 weeks old, 24.5-27.5 g) were anesthetized with an intraperitoneal injection of ketamine (75 mg/kg) and medetomidine (1 mg/kg). 100 μL of different doses of avathrin were injected into the mice via tail vein. The right carotid artery was dissected using blunt dissection and a vascular injury was caused applying filter paper of 2 mm×2 mm saturated with FeCl3 on top of the carotid artery. After 3 min, the filter paper was removed and the vessel was washed with sterile normal saline. To determine the time to occlusion, a miniature Doppler flow probe (Transonic Systems Inc., Ithaca, N.Y., USA) was placed around the carotid artery and blood flow was recorded using a Transonic® flow meter from ADInstruments (Dunedin, New Zealand). The maximal time for monitoring the blood flow after injury was 30 min. Mice were euthanized by cervical dislocation immediately after the completion of the experiment and prior to recovery from anesthesia.

CC[C@H](C)[C@H](NC(=O)[C@H](CCCNC(=N)N)NC(=O)[C@@H]1CCCN1C(=O)[C@@H](NC(=O)[C@H](C)NC(=O)[C@@H](NC(=O)[C@H](CCC(N)=O)NC(=O)[C@H](Cc1c[nH]cn1)NC(=O)CNC(=O)CNC(=O)[C@@H](N)CO)[C@@H](C)O)C(C)C)C(=O)N[C@@H](CO)C(=O)N[C@@H](CCCCN)C(=O)N[C@@H](CCC(N)=O)C(=O)NCC(=O)N[C@@H](CC(C)C)C(=O)NCC(=O)NCC(=O)N[C@@H](CC(=O)O)C(=O)N[C@@H](Cc1ccccc1)C(=O)N[C@@H](CCC(=O)O)C(=O)N[C@@H](CCC(=O)O)C(=O)N[C@H](C(=O)N1CCC[C@H]1C(=O)N[C@@H](CO)C(=O)N[C@@H](CC(=O)O)C(=O)N[C@@H](CCC(=O)O)C(=O)N[C@H](C(=O)N[C@H](C(=O)N[C@@H](CCC(=O)O)C(=O)O)[C@@H](C)CC)[C@@H](C)CC)[C@@H](C)CC [Peptide K10R] (H-SGGHQTAVPRISKQGLGGDFEEIPSDEIIE-OH; N-terminus and C-terminus assumed)
time to complete cleavage by thrombin (thrombin; listed as K10β-avathrin): 3 h
fold gain in activity compared with avathrin (human α-thrombin): 5 fold
Hill slope of thrombin amidolytic inhibition (human α-thrombin; 0 min pre-incubation where stated): 1.10±0.01
IC50 (human α-thrombin; IC50 of inhibition of thrombin amidolytic activity, thrombin 0.81 nM, S2238 100 μM, without pre-incubation (0 min) where stated): 1.15 ± 0.45 nM
Hill Slope (human α-thrombin; Table 2): 1.10 ± 0.01

CC[C@H](C)[C@H](NC(=O)[C@H](C)NC(=O)[C@H](CCC(=O)O)NC(=O)[C@H](Cc1ccccc1)NC(=O)[C@H](CC(=O)O)NC(=O)[C@H](Cc1ccccc1)NC(=O)[C@@H]1CCCN1C(=O)[C@@H]1CCCN1C(=O)[C@H](C)NC(=O)[C@@H](NC(=O)[C@H](CCCCN)NC(=O)[C@H](Cc1c[nH]cn1)NC(=O)[C@H](CCSC)NC(=O)[C@H](CCCCN)NC(=O)[C@@H]1CCCN1C(=O)[C@H](CCC(=O)O)NC(=O)[C@H](C)NC(=O)[C@@H](NC(=O)[C@H](CC(=O)O)NC(=O)CNC(=O)[C@H](CCC(N)=O)NC(=O)[C@H](CC(=O)O)NC(=O)[C@@H](N)CO)C(C)C)[C@@H](C)O)C(=O)N1CCC[C@H]1C(=O)N[C@@H](CCC(=O)O)C(=O)N[C@@H](CCC(=O)O)C(=O)N[C@@H](Cc1ccc(O)cc1)C(=O)N[C@@H](CC(C)C)C(=O)N[C@@H](CC(=O)O)C(=O)N[C@@H](CC(=O)O)C(=O)N[C@@H](CCC(=O)O)C(=O)N[C@@H](CO)C(=O)O [Variegin, reference compound]
time to complete cleavage by thrombin (thrombin): 4 h
Multiplate AUC (U) ([1]; 1.5 h, peptide 150 μM): 65.2 U
Multiplate AUC (U) ([1]; 1.5 h, peptide 300 μM): 52.3 U
Multiplate AUC (U) ([1]; 4 h, peptide 150 μM): 48.6 U
Multiplate AUC (U) ([1]; 4 h, peptide 300 μM): 33.9 U
Multiplate AUC (U) ([1]; 24 h, peptide 150 μM): 41.9 U
Multiplate AUC (U) ([1]; 24 h, peptide 300 μM): 40.5 U
Multiplate AUC (U) ([1]; 48 h, peptide 300 μM): 18.3 U
Time to observe clot formation (blood; final concentration 75 micromolar): 46 h
Time to observe clot formation (blood; final concentration 150 micromolar): 52 to 66 h
Time to observe clot formation (blood; final concentration 300 micromolar): 52 to 66 h

hirulog-1: peptidyl bivalent thrombin inhibitor used as comparator drug
time to occlusion (TTO) ([2]; 3 mg/kg intravenously): 9.70 ± 3.15 min and 9.76 ± 3.15 min
time to occlusion (TTO) ([2]; 10 mg/kg intravenously): 15.22 ± 3.39 min and 15.23 ± 3.39 min
